Two compounds from BindingDB's records for doi:10.1021/jm00039a019 (Zeria Pharmaceutical, 1994) can be followed below.

The test concerns the target Prolyl endopeptidase (Canis familiaris). The experiment in a line: In vitro inhibitory activity against purified prolyl endopeptidase (PEP) from canine brain.

`O=C[C@@H]1CSCN1C(=O)[C@@H]1CSCN1C(=O)C[C@H]1CCc2ccccc2C1` [(R)-3-[(R)-3-((S)-2-1,2,3,4-Tetrahydro-naphthalen-2-yl-acetyl)-thiazolidine-4-carbonyl]-thiazolidine-4-carbaldehyde] had an IC50 of 0.85 nM. The result for `CC(C)c1ccc(C(=O)c2cccs2)c(SCCCCCCCCN(C)C)n1` [[2-(8-Dimethylamino-octylsulfanyl)-6-isopropyl-pyridin-3-yl]-thiophen-2-yl-methanone] reads 3500 nM.
